Measured values reported in article PMC7466001 (Molecules, 2020).
Values joined by “and” are separate entries in the source; they are usually repeats but may differ in a detail not shown here. Identical values can stand only once. Like-named read-outs stand apart in the source and are kept apart here.

Columns and labels:
rNK1R = test system: rNK1R; parameters: method as in PMID 19426690; details: cells expressing rNK1R; cited from earlier work
hNK1R = test system: hNK1R; parameters: method as in PMID 19426690; details: cells expressing hNK1R; cited from earlier work
[1] = molecular target: human neurokinin 1 receptor; parameters: method as in PMID 9804700; details: human receptor binding; cited from earlier work
[2] = parameters: method as in PMID 15488686; details: aprepitant; cited from earlier work
[3] = molecular target: T1, rat neurokinin 1 receptor (Rattus norvegicus, UniProt P14600); experiment: Competitive radioligand binding assay using rat brain homogenates, [3H]-[Sar9,Met(O2)11]-Substance P; details: for Ratio to APT: IC50 ratio to aprepitant, rat NK1R
T1 construct: from tissue; host or cells: rat brain (membrane preparation / homogenate)
T1 sequence (P14600 whole entry): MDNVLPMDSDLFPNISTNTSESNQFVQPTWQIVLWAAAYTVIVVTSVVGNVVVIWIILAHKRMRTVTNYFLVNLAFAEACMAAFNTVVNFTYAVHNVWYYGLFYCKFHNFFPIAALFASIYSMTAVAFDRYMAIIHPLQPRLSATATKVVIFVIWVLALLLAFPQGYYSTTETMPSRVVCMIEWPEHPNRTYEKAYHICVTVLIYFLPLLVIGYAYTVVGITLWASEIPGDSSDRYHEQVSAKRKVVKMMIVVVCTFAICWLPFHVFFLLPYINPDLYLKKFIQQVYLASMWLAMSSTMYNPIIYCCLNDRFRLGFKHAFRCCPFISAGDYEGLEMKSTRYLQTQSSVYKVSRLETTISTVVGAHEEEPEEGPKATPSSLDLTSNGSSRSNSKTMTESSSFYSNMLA
Source text: An important consideration in the search of conjugate vectors for radionuclides is whether the functionalization of a high affinity ligand would not reduce the binding strength for a desired receptor. For the preliminary addressing of this issue in the case of our conjugates, we measured the affinity of compounds 5A–E (uncomplexed precursors) for the rat neurokinin-1 receptor. The human (hNK1R) and the rat (rNK1R) neurokinin 1 receptors differ in their sequences and pharmacology.
In brief, the membrane preparations obtained from rat brains were incubated at 25 °C for 60 min in the presence of a selective radioligand [^3H]-[Sar^9,Met(O2)^11]-Substance P obtained from PerkinElmer, (Waltham, MA, USA) and the increasing concentrations of the tested compounds (each concentration in duplicate). Non-specific binding was measured in the presence of 10 μM cold Substance P. The assay buffer was composed of 50 mM Tris-HCl (pH 7.4), 5 mM MnCl2, bovine serum albumin (BSA) (0.1 mg/mL), bacitracin (100 μg/mL), bestatin (30 μM), phenylmethylsulfonyl fluoride (30 μg/mL), and captopril (10 μM). The reaction total volume was 1 mL. With the incubation having been terminated, a rapid filtration through GF/B Whatman glass fiber strips was done with a M-24 Cell Harvester (Brandel, Gaithersburg, MD, USA). The filters were pre-soaked overnight with 0.5% polyethyleneimine so that the extent of non-specific binding could be minimized. After the filtration, the strips were dried, the filter discs were placed separately in 24-well plates, and a Betaplate Scint scintillation solution (PerkinElmer, Waltham, MA, USA) was added to each well. Radioactivity was measured with a MicroBeta LS scintillation counter, Trilux (PerkinElmer, Waltham, MA, USA). The data came from three independent experiments done in duplicate. The results are presented as IC50 with SEM.

[4] = Lipophilicity study, distribution in n-octanol/PBS (pH 7.40); type: physicochemical; details: n-octanol/PBS buffer pH 7.4
Source text: In the course of the lipophilicity study, each isolated DOTA radioconjugate (determined as fully stable in HS) was examined for distribution in the system of n-octanol and a phosphate-buffered saline (PBS) buffer (pH = 7.4) to estimate the lipophilicity of the radiocomplex. The lipophilicity of each radioconjugate (logD), defined as the logarithm of the distribution coefficient (D) is based on the ratio of the radioactivity of the organic phase to the radioactivity of the aqueous phase. The stability of the studied radioconjugate was verified simultaneously during the experiment through the HPLC analysis of the aqueous phase. LogD values of [^68Ga]Ga-5A–[^68Ga]Ga-5E and [^177Lu]Lu-5A–[^177Lu]Lu-5E are listed below in Table 3.
The lipophilicity values of the radioconjugates (logD), expressed as the logarithm of its D in the n-octanol/PBS (pH 7.40) system, mimicking the physiological conditions (Product Properties Test Guidelines of the Office of Prevention, Pesticides and Toxic Substances 830.7550, 1996), were determined right after the SPE method purification and ethanol evaporation processes. A solution of isolated selected radioconjugate in 500 µL of a 0.1 M PBS buffer at pH 7.40 and 500 µL of n-octanol was vigorously stirred and centrifuged (13,500 rpm for 5 min) to separate the immiscible phases. The radioactivities of the aqueous and organic layers were determined using a well-type NaI(Tl) detector. The distribution coefficient was calculated as the ratio of the radioactivity of the radioconjugate in the organic phase to that in the aqueous phase. Each measurement was performed in triplicate and averaged. Simultaneously, the aqueous phases were analyzed by HPLC to check whether the studied radioconjugate remained intact during the experiment.

[5] = type: physicochemical
Method: All APT conjugates with DOTA, Bn-DOTA, and Bn-DOTAGA were radiolabeled with ^68Ga and ^177Lu, while APT conjugates with DTPA were only radiolabeled with ^68Ga. Synthesized radioconjugates were purified using the solid phase extraction (SPE) method before HPLC identification (Figure 2 and Figure 3) and further analyses.
Moreover, in the radiochromatogram of [^177Lu]Lu-DOTA-Bn-Et-APT ([^177Lu]Lu-6A) one can see a small additional signal (about 19.3 min) that is recognized as an early by-product of an interaction with solvent (EtOH) from the purification process. To verify the identity of all synthesized [^68Ga]Ga-radioconjugates in a non-carrier added scale, the non-radioactive stable gallium reference compounds (Ga-5A–Ga-9A and Ga-5A–Ga-5E) were synthesized and characterized by mass spectrometry. […]
The ^68Ga radiolabeling of the DOTA, Bn-DOTA, and Bn-DOTAGA conjugates of APT was performed according to the following procedure: 145 µL of a concentrated solution of [^68Ga]GaCl3 in 0.1 M HCl from the ^68Ge/^68Ga generator (4.9 ÷ 7.2 MBq) was added into the solution of 25 nmol of the selected conjugate in 200 µL of a 0.2 M acetate buffer (pH = 4.5) and heated for 5–10 min at 95 °C. […] The effectiveness of the purification was monitored by HPLC. […]

[6] = uncomplexed precursors, rat brain homogenates, three independent experiments in duplicate, read-out: IC50 ± SEM

Row | Ratio to APT [3] | IC50 [3, 6] | Compound | pKB (rNK1R) | pKB (hNK1R) | IC50 [1] [nM] | logD [2] | IC50 ([3]; IC50, rat brain homogenates) [nM] | IC50 ([3]; IC50 ± SEM, uncomplexed precursors, rat brain homogenates, three independent experiments in duplicate) [nM] | logD ([4]; 68Ga-radiolabeled conjugate) | logD ([4]; 177Lu-radiolabeled conjugate) | stability of the radioconjugate after radiosynthesis [5]
1 | 19.7 | ~2500 nM and 2500 nM | APT-Ac-Et-DOTA [5E] |  |  |  |  |  |  | −0.231 ± 0.015 | 0.500 ± 0.017 | 
2 | 19.1 | ~2500 nM and 2500 nM | APT-Ac-HN-NH-DOTA [5D] |  |  |  |  |  |  | −1.012 ± 0.017 | −0.401 ± 0.015 | 
3 | 14.3 | 1800 ± 700 nM | APT-Bu-DOTA [5C] |  |  |  |  |  |  | 0.290 ± 0.018 | 0.777 ± 0.021 | 
4 | 5.3 | 690 ± 70 nM | APT-Pr-DOTA [5B] |  |  |  |  |  |  | 0.058 ± 0.016 | 0.654 ± 0.022 | 
5 |  |  | [^68Ga]Ga-DTPA-(Et-APT)2 [[^68Ga]Ga-9A] |  |  |  |  |  |  |  |  | immediately unstable

Row | Compound | Ratio to APT [3] | IC50 [3, 6] | pKB (rNK1R) | pKB (hNK1R) | IC50 [1] [nM] | logD [2] | IC50 ([3]; IC50, rat brain homogenates) [nM] | IC50 ([3]; IC50 ± SEM, uncomplexed precursors, rat brain homogenates, three independent experiments in duplicate) [nM] | logD ([4]; 68Ga-radiolabeled conjugate) | logD ([4]; 177Lu-radiolabeled conjugate) | stability of the radioconjugate after radiosynthesis [5]
6 | C[C@@H](O[C@H]1OCCN(Cc2n[nH]c(=O)[nH]2)[C@H]1c1ccc(F)cc1)c1cc(C(F)(F)F)cc(C(F)(F)F)c1 [Aprepitant, aprepitant] | 1.0 |  | 7.3 | 8.7 | 0.09 | 4.8 | 128 | 130 ± 60 |  |  | 
7 | APT-Et-DOTA [5A] | 48.2 | 6200 ± 2600 nM |  |  |  |  |  |  | 0.141 ± 0.019 | 0.708 ± 0.021 | 
